Literature values, collected in US6645392B2, “Method of removing wrinkles from fabric” (The Procter & Gamble Company, priority 2000, dated 2003).

Conditions: for water solubility: in water

Compound	water solubility	solubility in water
[H]/N=C(\N/C(=N/[H])NCCCCCCNC(=N)NC(=N)Nc1ccc(Cl)cc1)Nc1ccc(Cl)cc1 [chlorhexidine digluconate, 1,1′-hexamethylene bis(5-(p-chlorophenyl)biguanide), reference compound]	about 70%	
[H]/N=C(\N/C(=N/[H])NCCCCCCNC(=N)NC(=N)Nc1ccc(Cl)cc1)Nc1ccc(Cl)cc1 [chlorhexidine diacetate, 1,1′-hexamethylene bis(5-(p-chlorophenyl)biguanide), reference compound]	about 1.8%	
OCCOc1ccccc1 [2-phenoxyethanol]	about 2.67%	
OCCc1ccccc1 [2-phenylethanol]	about 2%	
[Na+].[O-][n+]1ccccc1[S-] [sodium pyrithione]	about 50%	
CC(C)(O)C(Cl)(Cl)Cl [chlorobutanol, 1,1,1-Trichloro-2-methylpropan-2-ol]	about 0.8%	
ClC=CC[N+]12CN3CN(CN(C3)C1)C2.[Cl-] [Dowicil 200, 1-(3-Chlorallyl)-3,5,7-triaza-1-azoniaadamantane chloride]		freely soluble in water
O=[N+]([O-])C(Br)(CO)CO [Bronopol, 2-bromo-2-nitropropane-1,3-diol]	about 25%	
OCc1ccccc1 [benzyl alcohol]	about 4%	
O=[N+]([O-])C1(Br)COCOC1 [Bronidox L, 5-bromo-5-nitro-1,3-dioxane]	about 0.46%	
CC1(C)C(=O)N(CO)C(=O)N1CO [DMDM hydantoin, 1,3-bis(hydroxymethyl)-5,5-dimethyl-2,4-imidazolidinedione]	more than 50%	
